Several values for one entry are separate records, joined by “and”; a condition that tells them apart may be missing. Identical values can stand only once. Like-named read-outs stand apart in the source and are kept apart here.
Key:
[1] = test system: HIV-1Ba-L; test: HIV-1Ba-L replication in PBMCs (supernatant RT end-point)
Procedure, shortened: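 Pooled PHA-stimulated human PBMCs (5×10^4 cells/well) were infected with HIV-1Ba-L at MOI 0.1 with nine ½-log compound dilutions and cultured seven days at 37° C. Supernatant RT activity was measured by ^3H-TTP incorporation on poly rA:oligo dT (60 minutes, 37° C) and counted by scintillation.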

[2] = Cytotoxicity by MTS staining in PBMCs; type: cell-based; details: human, peripheral blood mononuclear cells (PBMC), read-out: TC50
Procedure: (§1) Cytotoxicity was assessed by MTS staining. At assay end-point, PBMC were stained with the addition of […] of the soluble tetrazolium-based dye MTS to determine cell viability and quantify compound toxicity. The plates were incubated 4 to 6 hrs at 37° C. Following incubation, the activity was assessed by reading absorbance values at 490/650 nm.

[3] = target: T1, recombinant HIVNL4-3 heterodimeric (p66/p51) Reverse Transcriptase (Human immunodeficiency virus type 1 group M subtype B, UniProt P12497); test: Biochemical reverse transcriptase assay; parameters: species or system HIV-1; details: 5'LTR template/primer
T1 construct: Purified recombinant HIVNL4-3 heterodimeric (p66/p51) Reverse Transcriptase (RT)
Procedure: Enantiomers of Example 34 were created and utilized to assess the activity of the compounds in a biochemical reverse transcriptase assay. Purified recombinant HIVNL4-3 heterodimeric (p66/p51) Reverse Transcriptase (RT) was used in experiments. RT activity was determined by the incorporation of radiolabeled deoxyribonucleotides into the newly synthesized DNA strand. The standard RT reaction mixture contained a synthetic homopolymeric template/primer [poly(rA)/oligo(dT)] or in vitro transcribed viral RNA derived from the HIV-1NL4-3 5′-LTR region (nucleotide residues 454 to 652) and a primer complementary to the primer binding site (PBS, nucleotide residues 636 to 652), radiolabeled deoxyribonucleotide, dNTPs and RT. The reaction was carried out in a volume of 40 μl containing 50 mM Tris HCl, pH 7.8, 50 mM KCl, 5 mM MgCl2, 1 mM DTT, 50 μM each of dATP, dCTP, dGTP, 50 nM dTTP, 1 μCi of [^3H] dTTP (70-90 Ci/mM) and 5 nM template/primer. The reaction was initiated by the addition of 10 nM RT. For compound screening, serially diluted test articles were added to the reaction followed by the addition of RT. The reaction mixture was incubated at 37° C. for 1 h, then quenched by the addition of ice-cold trichloroacetic acid (TCA) to the final concentration of 10%. The plate was incubated at 4° C. for 1 h to precipitate the synthesized DNA, then rinsed 3-times with 10% TCA and 1 time with 70% ethanol. After addition of 25 μl scintillation fluid to completely dried wells, radioactivity is counted by MicroBeta scintillation counter. The reduction of radioactivity represents the potency of compound inhibition.

[4] = test system: peripheral blood mononuclear cells (PBMC); test: Cytotoxicity by MTS staining in PBMCs; type: cell-based; details: read-out: TC50 (the source's name)
Procedure: as §1

[5] = test system: HIV-1 K103N, Y181C (A17); test: HIV-1 K103N, Y181C (A17) replication in PBMCs; type: cell-based
Description: In another embodiment of the present disclosure compounds are provided which inhibit the replication of HIV strains resistant to NNRTIs. Compounds in this disclosure inhibit, A17, an HIV-1 virus with mutations in the RT non-nucleoside binding pocket, K103N and Y181C, in a dose-dependent susceptibility testing manner.
The asparagine variation at residue 103 and the cysteine variation at residue 181 are known to inhibit the activity of the NNRTI's.
Evaluation Dihydropyrimidines vs. HIV-1Ba-L and HIV-1 K103N, Y181C in PBMCs

[6] = test system: HIV-1Ba-L; test: Inhibition of virus replication in MAGI-CCR5 cells (β-galactosidase reporter); type: cell-based; details: HIV-1Ba-L in MAGI-CCR5 cells; for IC50: 48 hours, β-galactosidase reporter expression, read-out: IC50
Procedure, shortened: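 HeLa-derived MAGI-CCR5 cells (high CD4/CCR5, HIV-1 LTR-driven β-galactosidase) plated at 1.0×10^4 cells/well the day before infection with HIV-1Ba-L. Compounds tested at six concentrations in triplicate, with parallel uninfected plates for cytotoxicity.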

[7] = test system: MAGI-CCR5 cells; test: Cytotoxicity by MTS staining in uninfected MAGI-CCR5 cells; type: cell-based; details: 48 hours, read-out: TC50 (the source's name)
Procedure, shortened: (§2)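 Uninfected MAGI-CCR5 cells (HeLa-CD4-LTR-β-gal derived, expressing CD4/CCR5) plated at 1.0×10^4 cells/well the day before, then exposed to compounds at six concentrations in triplicate alongside parallel infected assays. Viability read by MTS staining.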

[8] = as above; type: cell-based; details: human, read-out: TC50
Procedure, shortened: as §2

[9] = Human immunodeficiency virus 1, PBMC, 168 h
[10] = 5'LTR/dPR IC50, HIV RT biochemical assay
[11] = HIV-1Ba-L in PBMCs, seven days, RT end-point
[12] = Virus Ba-L in PBMCs (Ba-L vs A17 comparison)
[13] = Virus A17 (K103N, Y181C) in PBMCs
[14] = Human immunodeficiency virus 1, BAL, PBMC
[15] = Human immunodeficiency virus 1, PBMC

SMILES | TI (TC50/IC50) ([1]; HIV-1Ba-L in PBMCs) | IC50 [1, 9] [µM] | CC50 at 7 days ([2]; MTS staining) [µM] | IC50 [3, 10] | TI (TC50/IC50) [1, 12] | TI (TC50/IC50) [5, 13] | TI (TC50/IC50) [6] | IC50 [6] [µM] | CC50 [7] [µM] | IC50 ([6]; Human immunodeficiency virus 1) [µM] | CC50 at 48 h [8] [µM] | CC50 at 7 days ([2]; A17 line of the table) [µM] | CC50 at 7 days ([2]; Ba-L line of the table) [µM] | IC50 [5, 15] [µM] | other results
CC1=C(c2nc(-c3ccc(C#N)cc3)cs2)C(c2cccc(O)c2)NC(=O)N1 (single isomer, unassigned) [Example 34 (enantiomer)] | D (D < 10.0) | 5 to 100 | ≥ 100 | > 100 µM | – | – | – | – | – | – | – | – | – | – | –
Cc1cn([C@H]2C[C@H](N=[N+]=[N-])[C@@H](CO)O2)c(=O)[nH]c1=O [AZT, reference compound] | >54.9 | – | – | – | >88.6 | >629.0 | >36.5 | 0.08 | > 1 | – | – | – | – | – | IC50 [1, 11]: 0.02 µM; IC50 [1, 12]: 0.011 µM; CC50 ([4]; A17 line of the table): > 1 µM; CC50 ([4]; Ba-L line of the table): > 1 µM; CC50 ([4]; MTS staining): > 1 µM; IC50 ([5]; Virus A17 (K103N, Y181C) in PBMCs, read-out: IC50): 0.0016 µM
Cc1cn([C@H]2C[C@H](N=[N+]=[N-])[C@@H](COP(=O)(O)OP(=O)(O)OP(=O)(O)O)O2)c(=O)[nH]c1=O [AZT-TP] | – | – | – | – | – | – | – | – | – | – | – | – | – | – | IC50 ([3]; HIV RT biochemical assay, read-out: 5'LTR/dPR IC50): 0.009 µM and 0.01 µM
CC1=C(c2nc(-c3ccc(C#N)cc3)cs2)C(c2cccc(O)c2)NC(=O)N1 (stereo not drawn) [Example 34] | A (A = TI (TC50/IC50) ≧100.0) | < 1 | 50 to 100 | < 1 µM | – | – | A (A = TI (TC50/IC50) ≧ 100.0) | – | – | < 1 | ≥ 100 | – | – | – | –
CC1=C(c2nc(-c3ccc(C#N)cc3C)cs2)C(c2cccnc2F)NC(=O)N1 (stereo not drawn) [Example 83] | – | – | – | – | – | – | B (B < 100.0-50.0) | < 1 | < 50 | – | – | – | – | – | –
CC1=C(c2nc(-c3ccc(C#N)cc3C)cs2)C(c2cccnc2F)NC(=O)N1 (stereo not drawn) [Example 86] | A (A = TI (TC50/IC50) ≧100.0) | < 1 | ≥ 100 | – | A (A = TI (TC50/IC50) ≧ 100.0) | D (D < 10.0) | A (A = TI (TC50/IC50) ≧ 100.0) | < 1 | ≥ 100 | – | – | ≥ 100 | ≥ 100 | 5 to 100 | IC50 [1, 14]: < 1 µM
CC1=C(c2nc(-c3ccc(C#N)cc3)cs2)C(c2ccc(C(F)(F)F)nc2)NC(=O)N1 (stereo not drawn) [Example 96] | A (A = TI (TC50/IC50) ≧100.0) | < 1 | ≥ 100 | – | A (A = TI (TC50/IC50) ≧ 100.0) | D (D < 10.0) | A (A = TI (TC50/IC50) ≧ 100.0) | – | – | < 1 | ≥ 100 | ≥ 100 | ≥ 100 | 5 to 100 | IC50 [1, 14]: < 1 µM
Cc1ccnc2c1NC(=O)c1cccnc1N2C1CC1 [Nevirapine] | – | – | – | 0.29 µM and 0.19 µM | – | – | – | – | – | – | – | – | – | – | –
Cc1ccc(-c2ccc3c(c2)C=C(C(=O)Nc2ccc(C[N+](C)(C)C4CCOCC4)cc2)CCC3)cc1.[Cl-] [TAK 779, reference compound] | >29.9 | – | – | – | – | – | 2902.7 | 0.004 | > 10 | – | – | – | – | – | IC50 [1, 11]: 0.35 µM; CC50 ([4]; MTS staining): > 10 µM
Cc1cc(C#N)cc(C)c1Oc1nc(Nc2ccc(C#N)cc2)nc(N)c1Br [TMC-125, Etravirine, reference compound] | >325.0 | – | > 1 | 0.19 µM | >402.0 | >101.0 | >37,500.0 | – | – | 0.003 | > 100 | > 1 | > 1 | 0.01 | –

— patent US9120787B2, “HIV replication inhibitors” (priority 2011, dated 2015)
